We go through 6 molecules from ChEMBL document CHEMBL5579851, “Synthesis and antifungal evaluation of novel triazole derivatives bearing a pyrazole-methoxyl moiety” (Eur J Med Chem, 2024).

Usually MIC stands for the lowest concentration found to suppress growth.

The structures appear in SMILES notation. Values after ≈ are worked out from the molar mass of the structure shown. A value given as a limit tells only on which side of the number the result lay.

For one assay, the system named is Candida tropicalis. The assay is described as follows: Antifungal activity against Candida tropicalis 8915 assessed as inhibition of fungal growth incubated for 48 hrs by CLSI based broth microdilution assay. The format is functional.
Conditions: not given
In the case of `C[C@@H](OCc1ccn(Cc2ccc(Cl)cc2Cl)n1)[C@](O)(Cn1cncn1)c1ccc(F)cc1F`, the MIC amounted to 32 µg/mL (≈ 62.9 µM).
The same measure, in the same setting: then `C[C@@H](OCc1ccn(Cc2ccccc2Cl)n1)[C@](O)(Cn1cncn1)c1ccc(F)cc1F`, with 32 µg/mL (≈ 67.5 µM); and `C[C@@H](OCc1ccn(Cc2ccc(Cl)cc2F)n1)[C@](O)(Cn1cncn1)c1ccc(F)cc1F`, with 0.5 µg/mL (≈ 1.02 µM); and `C[C@@H](OCc1ccn(Cc2ccccc2)n1)[C@](O)(Cn1cncn1)c1ccc(F)cc1F`, with 32 µg/mL (≈ 72.8 µM).
Regarding `C[C@@H](OCc1ccn(Cc2ccccc2F)n1)[C@](O)(Cn1cncn1)c1ccc(F)cc1F`, the MIC was around 64 µg/mL (≈ 140 µM).
For `Cc1cccc(Cn2ccc(CO[C@H](C)[C@](O)(Cn3cncn3)c3ccc(F)cc3F)n2)c1`, the minimal inhibitory concentration (MIC) was above 64 µg/mL.

A further assay has as its system Nakaseomyces glabratus. The assay is described as follows: Antifungal activity against Candida glabrata 537 assessed as inhibition of fungal growth incubated for 48 hrs by CLSI based broth microdilution assay. The format is functional.
Conditions: not given
Take `C[C@@H](OCc1ccn(Cc2ccc(Cl)cc2Cl)n1)[C@](O)(Cn1cncn1)c1ccc(F)cc1F`: the MIC was found to be 1 µg/mL (≈ 1.97 µM).
As to `C[C@@H](OCc1ccn(Cc2ccccc2Cl)n1)[C@](O)(Cn1cncn1)c1ccc(F)cc1F`, the MIC was 0.5 µg/mL (≈ 1.06 µM).
For the molecule `C[C@@H](OCc1ccn(Cc2ccc(Cl)cc2F)n1)[C@](O)(Cn1cncn1)c1ccc(F)cc1F`, the minimum inhibitory concentration (MIC) was determined as 0.25 µg/mL (≈ 0.508 µM).
`C[C@@H](OCc1ccn(Cc2ccccc2)n1)[C@](O)(Cn1cncn1)c1ccc(F)cc1F`: the MIC was 0.25 µg/mL (≈ 0.569 µM).
Take `C[C@@H](OCc1ccn(Cc2ccccc2F)n1)[C@](O)(Cn1cncn1)c1ccc(F)cc1F`: the MIC was determined as 0.25 µg/mL (≈ 0.547 µM).
On the same count and under the same terms, then `Cc1cccc(Cn2ccc(CO[C@H](C)[C@](O)(Cn3cncn3)c3ccc(F)cc3F)n2)c1`, with 4 µg/mL (≈ 8.82 µM).

The next assay relates to Candida albicans. The assay is described as follows: Antifungal activity against fluconazole-resistant Candida albicans 901 assessed as inhibition of fungal growth incubated for 48 hrs by CLSI based broth microdilution assay. It is filed as functional.
Conditions: not given
(In general: Broth dilution looks for growth in wells or tubes with falling amounts of substance.)
`C[C@@H](OCc1ccn(Cc2ccc(Cl)cc2F)n1)[C@](O)(Cn1cncn1)c1ccc(F)cc1F`: the MIC is 16 µg/mL (≈ 32.5 µM).

A further assay concerns Cryptococcus neoformans. Description: Antifungal activity against Cryptococcus neoformans 32609 assessed as inhibition of fungal growth incubated for 72 hrs by CLSI based broth microdilution assay.
Conditions: not given
It is filed as functional.
For the molecule `C[C@@H](OCc1ccn(Cc2ccc(Cl)cc2Cl)n1)[C@](O)(Cn1cncn1)c1ccc(F)cc1F`, the MIC came out at 0.5 µg/mL (≈ 0.984 µM).
Same read-out and setting: the figure for `C[C@@H](OCc1ccn(Cc2ccccc2Cl)n1)[C@](O)(Cn1cncn1)c1ccc(F)cc1F` is 0.25 µg/mL (≈ 0.528 µM); for `C[C@@H](OCc1ccn(Cc2ccc(Cl)cc2F)n1)[C@](O)(Cn1cncn1)c1ccc(F)cc1F` it is 0.25 µg/mL (≈ 0.508 µM).
On the same count and under the same terms, then `C[C@@H](OCc1ccn(Cc2ccccc2)n1)[C@](O)(Cn1cncn1)c1ccc(F)cc1F`, with 0.25 µg/mL (≈ 0.569 µM); and `C[C@@H](OCc1ccn(Cc2ccccc2F)n1)[C@](O)(Cn1cncn1)c1ccc(F)cc1F`, with 0.25 µg/mL (≈ 0.547 µM).
On the same count and under the same terms, then `Cc1cccc(Cn2ccc(CO[C@H](C)[C@](O)(Cn3cncn3)c3ccc(F)cc3F)n2)c1`, with 0.5 µg/mL (≈ 1.1 µM).

The test system of the next assay is [Candida] auris. Description: Antifungal activity against fluconazole-resistant Candida auris 919 assessed as inhibition of fungal growth incubated for 48 hrs by CLSI based broth microdilution assay. Particulars: Candidozyma auris. The format is functional.
Regarding `C[C@@H](OCc1ccn(Cc2ccc(Cl)cc2F)n1)[C@](O)(Cn1cncn1)c1ccc(F)cc1F`, the MIC amounted to 16 µg/mL (≈ 32.5 µM).

A further assay relates to Candida albicans. Description: Antifungal activity against fluconazole-resistant Candida albicans 904 assessed as inhibition of fungal growth incubated for 48 hrs by CLSI based broth microdilution assay. The format is functional.
Conditions: not given
`C[C@@H](OCc1ccn(Cc2ccc(Cl)cc2F)n1)[C@](O)(Cn1cncn1)c1ccc(F)cc1F`: the minimal inhibitory concentration (MIC) turned out to be 8 µg/mL (≈ 16.3 µM).

A further assay concerns Candida albicans. The assay is described as follows: Antifungal activity against Candida albicans SC5314 assessed as inhibition of fungal growth incubated for 48 hrs by CLSI based broth microdilution assay.
Conditions: not given
The format is functional.
Turning to `C[C@@H](OCc1ccn(Cc2ccc(Cl)cc2Cl)n1)[C@](O)(Cn1cncn1)c1ccc(F)cc1F`, the MIC was 0.25 µg/mL (≈ 0.492 µM).
With `C[C@@H](OCc1ccn(Cc2ccccc2Cl)n1)[C@](O)(Cn1cncn1)c1ccc(F)cc1F`, the MIC is at most 0.125 µg/mL.
In the case of `C[C@@H](OCc1ccn(Cc2ccc(Cl)cc2F)n1)[C@](O)(Cn1cncn1)c1ccc(F)cc1F`, the MIC was at most 0.125 µg/mL.
Same read-out and setting: then `C[C@@H](OCc1ccn(Cc2ccccc2)n1)[C@](O)(Cn1cncn1)c1ccc(F)cc1F`, with 0.5 µg/mL (≈ 1.14 µM).
On the same count and under the same terms, then `C[C@@H](OCc1ccn(Cc2ccccc2F)n1)[C@](O)(Cn1cncn1)c1ccc(F)cc1F`, with at most 0.125 µg/mL; and `Cc1cccc(Cn2ccc(CO[C@H](C)[C@](O)(Cn3cncn3)c3ccc(F)cc3F)n2)c1`, with at most 0.125 µg/mL.

Another assay has as its system [Candida] auris. Description: Antifungal activity against fluconazole-resistant Candida auris 891 assessed as inhibition of fungal growth incubated for 48 hrs by CLSI based broth microdilution assay. It is filed as functional. The following applies: Candidozyma auris.
`C[C@@H](OCc1ccn(Cc2ccc(Cl)cc2F)n1)[C@](O)(Cn1cncn1)c1ccc(F)cc1F`: the MIC came to 8 µg/mL (≈ 16.3 µM).

For a further assay, the system named is Candida parapsilosis. Description: Antifungal activity against Candida parapsilosis 22019 assessed as inhibition of fungal growth incubated for 48 hrs by CLSI based broth microdilution assay. Particulars: Lodderomyces parapsilosis. It is filed as functional.
On to `C[C@@H](OCc1ccn(Cc2ccc(Cl)cc2Cl)n1)[C@](O)(Cn1cncn1)c1ccc(F)cc1F`, for which the MIC came to 0.25 µg/mL (≈ 0.492 µM).
`C[C@@H](OCc1ccn(Cc2ccccc2Cl)n1)[C@](O)(Cn1cncn1)c1ccc(F)cc1F`: the MIC was determined as 0.5 µg/mL (≈ 1.06 µM).
As for `C[C@@H](OCc1ccn(Cc2ccc(Cl)cc2F)n1)[C@](O)(Cn1cncn1)c1ccc(F)cc1F`, the MIC worked out at 0.5 µg/mL (≈ 1.02 µM).
On the same count and under the same terms, then `C[C@@H](OCc1ccn(Cc2ccccc2)n1)[C@](O)(Cn1cncn1)c1ccc(F)cc1F`, with 0.5 µg/mL (≈ 1.14 µM); and `C[C@@H](OCc1ccn(Cc2ccccc2F)n1)[C@](O)(Cn1cncn1)c1ccc(F)cc1F`, with 0.5 µg/mL (≈ 1.09 µM); and `Cc1cccc(Cn2ccc(CO[C@H](C)[C@](O)(Cn3cncn3)c3ccc(F)cc3F)n2)c1`, with 0.5 µg/mL (≈ 1.1 µM).

Another assay has as its system [Candida] auris. Description: Antifungal activity against fluconazole-resistant Candida auris 918 assessed as inhibition of fungal growth incubated for 48 hrs by CLSI based broth microdilution assay. It is filed as functional. The following applies: Candidozyma auris.
`C[C@@H](OCc1ccn(Cc2ccc(Cl)cc2F)n1)[C@](O)(Cn1cncn1)c1ccc(F)cc1F`: the MIC worked out at 32 µg/mL (≈ 65.1 µM).

Another assay concerns Pichia kudriavzevii. The assay is described as follows: Antifungal activity against Candida krusei 4996 assessed as inhibition of fungal growth incubated for 48 hrs by CLSI based broth microdilution assay. It is filed as functional.
Conditions: not given
Take `C[C@@H](OCc1ccn(Cc2ccc(Cl)cc2Cl)n1)[C@](O)(Cn1cncn1)c1ccc(F)cc1F`: the minimal inhibitory concentration (MIC) worked out at 4 µg/mL (≈ 7.87 µM).
The same measure, in the same setting: then `C[C@@H](OCc1ccn(Cc2ccccc2Cl)n1)[C@](O)(Cn1cncn1)c1ccc(F)cc1F`, with 8 µg/mL (≈ 16.9 µM); and `C[C@@H](OCc1ccn(Cc2ccc(Cl)cc2F)n1)[C@](O)(Cn1cncn1)c1ccc(F)cc1F`, with 2 µg/mL (≈ 4.07 µM); and `C[C@@H](OCc1ccn(Cc2ccccc2)n1)[C@](O)(Cn1cncn1)c1ccc(F)cc1F`, with 4 µg/mL (≈ 9.1 µM).
As to `C[C@@H](OCc1ccn(Cc2ccccc2F)n1)[C@](O)(Cn1cncn1)c1ccc(F)cc1F`, the MIC was 8 µg/mL (≈ 17.5 µM).
On to `Cc1cccc(Cn2ccc(CO[C@H](C)[C@](O)(Cn3cncn3)c3ccc(F)cc3F)n2)c1`, for which the MIC worked out at 8 µg/mL (≈ 17.6 µM).

A further assay relates to Candida albicans. Description: Antifungal activity against Candida albicans 10231 assessed as inhibition of fungal growth incubated for 48 hrs by CLSI based broth microdilution assay. It is filed as functional.
Conditions: not given
In the case of `C[C@@H](OCc1ccn(Cc2ccc(Cl)cc2Cl)n1)[C@](O)(Cn1cncn1)c1ccc(F)cc1F`, the MIC worked out at 0.25 µg/mL (≈ 0.492 µM).
On the same count and under the same terms, then `C[C@@H](OCc1ccn(Cc2ccccc2Cl)n1)[C@](O)(Cn1cncn1)c1ccc(F)cc1F`, with 0.25 µg/mL (≈ 0.528 µM); and `C[C@@H](OCc1ccn(Cc2ccc(Cl)cc2F)n1)[C@](O)(Cn1cncn1)c1ccc(F)cc1F`, with 0.25 µg/mL (≈ 0.508 µM).
For `C[C@@H](OCc1ccn(Cc2ccccc2)n1)[C@](O)(Cn1cncn1)c1ccc(F)cc1F`, the MIC is 0.5 µg/mL (≈ 1.14 µM).
The same measure, in the same setting: the figure for `C[C@@H](OCc1ccn(Cc2ccccc2F)n1)[C@](O)(Cn1cncn1)c1ccc(F)cc1F` is 0.25 µg/mL (≈ 0.547 µM); for `Cc1cccc(Cn2ccc(CO[C@H](C)[C@](O)(Cn3cncn3)c3ccc(F)cc3F)n2)c1` it is 0.25 µg/mL (≈ 0.551 µM).
